From US11021598B2, “Resin molded product, laminate, and decorative sheet” (TOPPAN PRINTING CO., LTD., priority 2017, dated 2021)

Key:
[1] = pKa of photostabilizer (half neutralization potential titration); assay type: physicochemical; conditions: non-aqueous titration, HNP calibration curve
Procedure: (Method of Measuring pKa of Photostabilizer)
A solution of 0.1 N perchloric acid/dioxane and acetonitrile:chloroform=1:1 was added dropwise to an organic reference substance having known pKa value in an aqueous system to determine the half neutralization potential (HNP) by titration in a non-aqueous system. A plot of the HNP calibration curve for pKa was prepared. Then, titration was performed for the photostabilizer in the same manner to determine a corresponding pKa from the plot of calibration curve.

[2] = pKa of ultraviolet absorber upon light absorption; assay type: physicochemical; conditions: when irradiated with light, absorption spectrum; for pKa: acetonitrile solution titrated with 70% perchloric acid
Procedure: (Method of Measuring pKa of Ultraviolet Absorber Upon Light Absorption)
The ultraviolet absorber was dissolved in acetonitrile so that the absorbance at the maximum absorption wavelength became 1, and bubbling with nitrogen was performed for 15 minutes. Then, 70% perchloric acid was dropped into the solution to change the pH of the solution. At that time, the absorption spectrum of the solution was measured, and, from the absorbance at λmax, the ultraviolet absorber at each pH and the ultraviolet absorber in which hydrogen ion is added to the nitrogen of the benzotriazole skeleton or triazine skeleton of the ultraviolet absorber were obtained. From the point where these values become equal, pKa of the ultraviolet absorber upon light absorption was determined. Measurement of the absorption spectrum was performed by using a U-4000 spectrophotometer manufactured by Hitachi High-Technologies Corporation.

CCCCCCCCON1C(C)(C)CC(OC(=O)CCCCCCCCC(=O)OC2CC(C)(C)N(OCCCCCCCC)C(C)(C)C2)CC1(C)C [Tinuvin 123]
Photostabilizer pKa [1]: 4.7 | Photostabilizer pKa ([1]; listed as Tinuvin123): 4.5

CC(C)(C)CC(C)(C)c1ccc(O)c(-n2nc3ccccc3n2)c1 [Tinuvin 329]
Ultraviolet absorber pKa ([2]; acetonitrile, 70% perchloric acid): −4.9

CCCCCCCCOc1ccc(-c2nc(-c3ccc(C)cc3C)nc(-c3ccc(C)cc3C)n2)c(O)c1 [CYASORB UV-1164, 2,4-bis(2,4-dimethylphenyl)-6-(2-hydroxy-4-n-octyloxyphenyl)-1,3,5-triazine]
pKa [2]: -5

CCCCCCCCCCCCCCN1C(=O)NC2(CC(C)(C)N(C(C)=O)C(C)(C)C2)C1=O [8-acetyl-3-tetradecyl-7,7,9,9-tetramethyl-1,3,8-triazaspiro[4.5]decane-2,4-dione]
pKa [1]: 3.5

CC1(C)CC(OC(=O)CCCCCCCCC(=O)OC2CC(C)(C)NC(C)(C)C2)CC(C)(C)N1 [Chimassorb 770]
Photostabilizer pKa [1]: 9.0

Cc1cc(-n2nc3ccc(Cl)cc3n2)c(O)c(C(C)(C)C)c1 [Tinuvin 326, 2-(5-chloro-2-benzotriazolyl)-6-tert-butyl-p-cresol]
pKa [2]: -4.9

CCCCC(Cc1cc(C(C)(C)C)c(O)c(C(C)(C)C)c1)(C(=O)OC1CC(C)(C)N(C)C(C)(C)C1)C(=O)OC1CC(C)(C)N(C)C(C)(C)C1 [Tinuvin PA144]
Photostabilizer pKa [1]: 9.5

CCCCN(c1nc(NCCO)nc(N(CCCC)C2CC(C)(C)N(OC3CCCCC3)C(C)(C)C2)n1)C1CC(C)(C)N(OC2CCCCC2)C(C)(C)C1 [Tinuvin 152]
Photostabilizer pKa [1]: 7.0

CCCCCCCCCCCON1C(C)(C)CC(OC(=O)OC2CC(C)(C)N(OCCCCCCCCCCC)C(C)(C)C2)CC1(C)C [LA-81]
Photostabilizer pKa [1]: 5.5
